According to patent US12508243B2, “Compositions and methods for treating cancer and improving epithelial homeostasis” (The Regents of the University of California, priority 2019, dated 2025):
“Also recorded” adds a separate entry of the source.

What was measured:
TP63 = assay: qRT-PCR of TP63 expression in BEAS2B cells; format: cell-based, human; conditions: addition of CHIR
Experimental: (§1) RNA was isolated with the RNeasy Mini Kit (Qiagen 74104) following manufacturer's protocol and quantified using a NanoDrop Spectrophotometer (ThermoFisher). cDNA synthesis was performed using the TaqMan Reverse Transcription Reagents (ThermoFisher) as indicated by the company. qPCR was then performed using the TaqMan PCR Master Mix (Applied Biosystems) on the StepOne-Plus Real Time PCR System.

p-β-catenin^Y489 = assay: Immunofluorescence staining of phosphorylated β-catenin localization in ABSCs; format: cell-based, mouse
Experimental: (§2) Mouse and human ABSCs were fixed in […] for 15 minutes followed by permeabilization with 0.50% Triton-X for 10 minutes. Cells were blocked using serum-free protein block (Dako X090930) for one hour at room temperature and overnight primary antibody incubation. Secondary antibodies were incubated for 1 hour in darkness, washed, and mounted using Vectashield hardest mounting medium with DAPI (Vector Labs H-1500). IF images were obtained using an LSM780 or LSM880 Zeiss confocal microscope and composite images generated using Fiji.
(§3) To determine whether the pathobiology observed in human patients can be modeled in vitro, mouse ABSCs (mABSCs) were treated with GSK3β inhibitor CHIR99021 (CHIR) under submerged culture conditions for 4 days to activate canonical Wnt signaling (FIG. 2A).

human ABSCs = assay: Air-liquid interface (ALI) differentiation assay with human ABSCs; format: cell-based; conditions: human ABSCs, treated for 21 days
Experimental: (§4) 24-well 6.5 mm transwells with 0.4 μm pore polyester membrane inserts were coated with 0.2 mg/mL collagen type I dissolved in 60% ethanol and allowed to air dry. ABSCs were seeded at 100,000 cells per well and allowed to grow in the submerged phase of culture for 4-5 days with 500 μl media in the basal chamber and 200 μl media in the apical chamber. ALI cultures were then established and culture with only 500 μl media in the basal chamber, and cultures harvested at varying timepoints for immunofluorescence studies. Media was changed every other day and cultures were maintained at 37° C. and 5% C02. ABSCs were treated with the indicated concentrations of GSK3XV (Sigma 361558), CHIR or WIC1.
as §2
To assess whether WIC1 could reverse Wnt/β-catenin-induced ABSC hyperproliferation, human ABSCs were treated with either DMSO, CHIR, or CHIR+WIC1. […] It was then sought to determine if WIC1 could promote ABSC differentiation to ciliated cells under ALI conditions.

mouse ABSCs (mABSCs) [1] = assay: EdU proliferation assay in mouse ABSCs, submerged culture; format: cell-based; conditions: submerged culture 4 days; for mABSC proliferation (EdU incorporation): 1 μM CHIR + 1 μM inhibitor
Experimental: Mouse and human ABSCs were isolated following a previously published method. Briefly, mouse tracheas were dissected, cleaned, and incubated in 16 U/mL dispase for 30 minutes (1 hour for human) at room temperature. Tracheas were then incubated in 0.5 mg/mL DNase for another 30 minutes (1 hour for human) at room temperature. Epithelium was stripped and incubated in 0.1% Trypsin-EDTA for 30 minutes (1 hour for human) shaking at 37° C. to generate a single cell suspension. Isolated cells were passed through a 40 μm strainer and stained with fluorophore-conjugated antibodies against ITGA6 and TROP2. ITGA6+ TROP2+ cells were obtained via FACS that was completed using the BD FACSAria cell sorter.
In vitro proliferation was studied using the Click-iT EdU incorporation assay kit (Invitrogen C10337) following the company's protocol. Briefly, mouse and human AB SC cultures were treated with 10 μM EdU 6-8 hours prior to commencing IFs. Cells were fixed with […] for 15 minutes followed by permeabilization in 0.5% Triton-X for 20 minutes. EdU cocktail was incubated for 30 minutes in darkness followed by immunocytochemistry.
as §3

mouse ABSCs (mABSCs) [2] = assay: Air-liquid interface (ALI) differentiation assay with mouse ABSCs; format: cell-based
Experimental: as §4
Mouse ABSCs were grown in MTEC Plus media and MTEC serum-free media during the submerged and ALI phases of culture, respectively. MTEC base media is DMEM/Ham's F12 50/50 (Corning 15090CV). Table S1 and Table S2 indicate the media components and concentrations for MTEC Plus and MTEC serum-free media, respectively.
as §2, with “Fiji. […]” for “Fiji.”

Trp63 = Trp63 expression with CHIR and WIC1 treatment (FIG. 4F); format: cell-based; conditions: CHIR treatment
Experimental: as §1

BEAS2B cells = assay: Cell Titer Glo toxicity assay in BEAS2B cells; format: cell-based, human; conditions: various concentrations
Experimental: (§5) For luciferase reporter assays conducted outside of the high-throughput drug screen, BEAS2B cells were seeded in a 96-well plate at 20,000 cells per well. The following day, cells were with treated DMSO, 5 μM CHIR99021 (CHIR; Tocris 4423), or 5 μM CHIR plus WIC2 (Key Organics GP-0355), Coumarin (Sigma C4261), or WIC1 for 24 hours. Lysis reactions were conducted using BrightGlo (Promega E1910) and incubated for two minutes at room temperature prior to transferring luminescence reactions to white-bottom, white-walled 96-well plates (Costar). Toxicity assays were conducted by adding Cell Titer Glo reagent (Promega) following manufacturer's protocol. Luminescence readings were conducted using the Clariostar plate reader.

[3] = test system: TCF/LEF luciferase reporter; assay: TCF/LEF luciferase reporter assay in transduced BEAS2B cells (CHIR-induced); format: cell-based, human; conditions: 10 nM, WIC1, MSAB, LF3, ICG001 compared
Experimental: BEAS2B cells (ATCC CRL-9609) were seeded in a 6-well plate and infected with Cignal lentiviral particles containing a TCF/LEF luciferase reporter (Qiagen CLS-018L). Cells were spin infected at 37° C. for one hour using a multiplicity of infection of 20. Cells were selected with 0.6 μg/mL puromycin to isolate stably expressing clones.
as §5
In light of the finding that Wnt/β-catenin signaling drives ABSC hyperproliferation, a small molecule inhibitors of the pathway that could restore airway homeostasis. A high-throughput drug screen was established to identify compounds capable of reducing TCF/LEF activity measured by a luciferase reporter induced by CHIR treatment in a 384-well format (FIG. 3A). Briefly, white-bottom 384-well plates (Greiner One) were precoated overnight with 0.01 mg/mL fibronectin from human plasma (Sigma F0895), 0.03 mg/mL rat tail collagen type I (Corning 354249), and 0.01 mg/mL BSA (ThermoFisher BP-9706) diluted in 50 uL of Airway Epithelial Cell Growth Medium (PromoCell C21060). Precoat was then aspirated and washed using 100 μL the BioTek EL406. A custom V&P pin tool mounted to a Beckman FX liquid handler was then used to pin […] of 10 mM stock compound. 2,000 BEAS2B cells per well were then seeded using the Multidrop. Cells were therefore treated with 1% DMSO, 5 μM CHIR, or 5 μM CHIR+10 μM pinned compound and incubated for 24 hours at 37° C. and 5% CO2. […] 25 μL BrightGlo (Promega) was subsequently added to each well using the BioTek EL405 and incubated for 2 minutes prior reading luminescence values with the Envision plate reader (FIG. 3B). […] Z′ factor values were used to assess assay quality and was calculated by: Z′=1-3(SD Total+SDBackground)/(MeanTotal−MeanBackground) where SDTotal and MeanTotal are the standard deviation and mean of signal for CHIR-treated wells, and SDBackground and MeanBackground are the standard deviation and mean of signal for DMSO-treated wells. The Z′ factor value was calculated to be 0.82.

[4] = test system: TCF/LEF luciferase reporter; assay: TCF/LEF (TOPFLASH) luciferase reporter in mABSCs; format: cell-based, mouse; conditions: vs DMSO-treated cultures
Experimental: mABSCs were seeded in a 6-well transwell plate and transiently transfected with […] of the TOPFLASH luciferase reporter and […] Renilla Luciferase reporter vector pRL-TK for internal control (Promega). Transfections were conducted using Lipofectamine 2000 Transfection Reagent (ThermoFisher 11668030) following the manufacturer's protocol.
as §3

[5] = mABSCs, ALI, GSK3β inhibitor vs DMSO
[6] = mABSCs, ALI, 100 nM inhibitor vs DMSO
[7] = mABSCs, ALI, 1 μM inhibitor vs DMSO

`Cc1c[nH]c(-c2cnc(NCCNc3ccc(C#N)cn3)nc2-c2ccc(Cl)cc2Cl)n1` [CHIR, CHIR99021] was tested, and the TP63 expression (TP63) was “increase in TP63 expression”, the “Nuclear p-β-catenin^Y489” value (p-β-catenin^Y489; compound alone vs DMSO) was “increase in nuclear p-β-cateninY489; also recorded: increased nuclear p-β-catenin^Y489; also recorded: induced nuclear localization of p-β-catenin^Y489” and the “Localization of other phosphorylated forms of β-catenin (Y654, S552, S33,S37,T41)” value (p-β-catenin^Y489; mouse ABSCs, submerged phase of culture) was “remained primarily cytoplasmic or membranous”. The “Differentiation to the ciliated cell fate” value (human ABSCs) was “abolished differentiation to the cilated cell fate”, the “Pool of ABSCs” value (human ABSCs) was “increased pool for ABSCs” and the “mABSC proliferation (EdU)” value (mouse ABSCs (mABSCs) [1]; compound alone vs DMSO) was “statistically significant increase in proliferation; also recorded: statistically significant increased proliferation”. For the same molecule, the “Percentage of ciliated cells” value (mouse ABSCs (mABSCs) [2]; [5]) was “significant reduction in the percentage of ciliated cells”, the “Pool of K5+ mABSCs” value (mouse ABSCs (mABSCs) [2]; [5]) was “increased pool of K5+ mABSCs” and the ABSC morphology (mouse ABSCs (mABSCs) [2]; mABSCs, ALI, vs DMSO) was “clumping morphology reminiscent of PMLs; also recorded: dose-dependent heaping morphology that resembles the PMLs”. The Trp63 expression (Trp63) was “induction of Trp63 expression”.

In the case of `O=C1[C@H](Cc2ccc(O)cc2)N2C(=O)CCN(C(=O)NCc3ccccc3)[C@H]2CN1Cc1cccc2ccccc12` [ICG001], the “Toxicity by Cell Titer Glo” value (BEAS2B cells) is reported as “dose dependent toxicity”, the “mABSC proliferation (EdU incorporation)” value (mouse ABSCs (mABSCs) [1]) is reported as “decreased mABSC proliferation to a similar degree” and the “Proportion of ciliated cells” value (mouse ABSCs (mABSCs) [2]; [6]) is reported as “induced a greater proportion of ciliated cells”. The “Percentage of ciliated cells” value (mouse ABSCs (mABSCs) [2]; [7]) was “no effect on the percentage of ciliated cells”.

With `COC(=O)c1cccc(NS(=O)(=O)c2ccc(C)cc2)c1` [MSAB] the “Toxicity by Cell Titer Glo” value (BEAS2B cells) was “dose dependent toxicity”, the “mABSC proliferation (EdU incorporation)” value (mouse ABSCs (mABSCs) [1]) was “decreased mABSC proliferation to a similar degree” and the “TCF/LEF activity, inhibitor comparison” value [3] was “only inhibitor that decreased TCF/LEF activity at 10 nM”. The “Proportion of ciliated cells” value (mouse ABSCs (mABSCs) [2]; [6]) was “neither 100 nM nor 1 μM MSAB increased differentiation to the ciliated cell fate” and the “Percentage of ciliated cells” value (mouse ABSCs (mABSCs) [2]; [7]) was “neither 100 nM nor 1 μM MSAB increased differentiation to the ciliated cell fate”.

B1: Wnt3A: recombinant Wnt3A protein used to raise Wnt signaling (protein, UniProt P56704 19-352, looked up)
Protein Wnt-3a: SYPIWWSLAVGPQYSSLGSQPILCASIPGLVPKQLRFCRNYVEIMPSVAEGIKIGIQECQHQFRGRRWNCTTVHDSLAIFGPVLDKATRESAFVHAIASAGVAFAVTRSCAEGTAAICGCSSRHQGSPGKGWKWGGCSEDIEFGGMVSREFADARENRPDARSAMNRHNNEAGRQAIASHMHLKCKCHGLSGSCEVKTCWWSQPDFRAIGDFLKDKYDSASEMVVEKHRESRGWVETLRPRYTYFKVPTERDLVYYEASPNFCEPNPETGSFGTRDRTCNVSSHGIDGCDLLCCGRGHNARAERRREKCRCVFHWCCYVSCQECTRVYDVHTCK
With B1 the “Proportion of ciliated cells” value (mouse ABSCs (mABSCs) [2]; ALI conditions, 100 ng/mL) was “increased the proportion of ciliated cells”, the “K5+ mABSCs” value (mouse ABSCs (mABSCs) [2]; ALI conditions, 500 ng/mL) was “K5+ mABSC expansion” and the “Proportion of ciliated cells” value (mouse ABSCs (mABSCs) [2]; ALI conditions, 500 ng/mL) was “produced fewer ciliated cells”. The “TCF/LEF activity measured by a luciferase reporter” value [4] was “increased TCF/LEF activity”.
